The pIC50 is −log10 of the IC50, conventionally taken in molar units.

pIC50: −log10 of the molar value.

Results on 20 molecules are retold here after patent US20230066011A1, “PYRROLOPYRIMIDINE DERIVATIVE, AND PHARMACEUTICAL COMPOSITION FOR PREVENTING OR TREATING PROTEIN KINASE-RELATED DISEASE COMPRISING SAME AS ACTIVE INGREDIENT” (VORONOI CO., LTD., priority 2019, published 2023).

Assay type in all cases: biochemical
One assay addresses LRRK2 (G2019S) (Homo sapiens, UniProt Q5S007, G2019S). Nature of the assay: LRRK2 G2019S enzyme inhibition, ADP-Glo kinase assay. Particulars: ATP 25 μM. Set-up: purchased SignalChem L10-12GG. As to the method:
To evaluate an inhibitory activity of the compound according to the present invention against LRRK2, LRRK2 (G2019S), DYRK1, CLK1, and TTK kinases, experiments were performed as follows.
Each of the Example compounds was reacted with a purified human LRRK2 G2019S (L10-12GG, SignalChem) enzyme to evaluate an ability to inhibit an enzyme using a method as described below. A composition of 40 mM Tris-HCl (pH 7.4), 20 mM MgCl2, 0.5 mg/mL BSA, and 50 μM DTT was used as a reaction buffer, and all reactions of test substances were performed in the reaction buffer. Each of the compounds was diluted […] from a 10 mM DMSO stock using a serial dilution method, and enzyme activities were measured at final compound concentrations of 50, 10, 2, 0.4, 0.08, 0.016, 0.0032, 0.00064, 0.000128, 0.0000256, 0.00000512, and 0.000001024 μM. In the test, purified ATP (25 μM) and an enzyme substrate (0.2 μg) were reacted with a human LRRK2 G2019S (16 ng) enzyme at 25° C. for 2 hours, and the enzyme activities were then determined using an in vitro ADP-Glo™ kinase assay (Promega). An enzyme-activity reaction solution, an ADP-Glo reaction solution, and an enzyme-ability detection solution were reacted at a ratio of 2:2:1 to measure a degree of inhibition of the enzyme activity with luminescence. The degree of inhibition of the enzyme activity according to the treatment concentration of each of the compounds was calculated based on the fluorescence of the enzyme activity of the solvent control which was not treated with the compound. In this case, the concentration of each of the compounds inhibiting 50% of the enzyme activity was determined to be an IC50 (nM) value, and calculated using Prism (Version 5.01; GraphPad) software.
(In general: In ADP-Glo the light output rises with the ADP produced.)

The target of a further assay is T1, human GST-CLK1 (Homo sapiens, UniProt P49759).
T1 construct: purified human GST-CLK1 (129-end, SignalChem) enzyme; purchased SignalChem
The assay can be described thus: GST-CLK1 enzyme inhibition, ADP-Glo kinase assay. The conditions noted are these: ATP 10 μM, GST-CLK1 129-end. In short, it runs like this:
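Human GST-CLK1 (129-end, 3 ng) reacted with substrate and 10 μM ATP for 1 h at 25° C in 40 mM Tris-HCl pH 7.4, 20 mM MgCl2, 0.5 mg/mL BSA, 50 μM DTT. ADP-Glo luminescence was normalised to solvent control; IC50 (nM) from 3 data sets.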

The next assay concerns the target T2, human GST-DYRK1A (Homo sapiens, UniProt Q13627).
T2 construct: purified human GST-DYRK1A (full length, Thermo Scientifics) enzyme; purchased Thermo Scientifics
The assay can be described thus: GST-DYRK1A enzyme inhibition, ADP-Glo kinase assay. The conditions noted are these: ATP 10 μM, GST-DYRK1A full length, read-out: DYRK1 IC50. An outline of the steps:
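Full-length human GST-DYRK1A (10 ng) with 10 μM ATP and specific substrate in 40 mM Tris-HCl pH 7.4, 20 mM MgCl2, 0.5 mg/mL BSA, 50 μM DTT, 1 h at 25 °C. ADP formation read by ADP-Glo luminescence relative to solvent control; IC50 from three data sets.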

LRRK2 (G2019S), sequence (Q5S007 970-2527 G2019S limits assumed): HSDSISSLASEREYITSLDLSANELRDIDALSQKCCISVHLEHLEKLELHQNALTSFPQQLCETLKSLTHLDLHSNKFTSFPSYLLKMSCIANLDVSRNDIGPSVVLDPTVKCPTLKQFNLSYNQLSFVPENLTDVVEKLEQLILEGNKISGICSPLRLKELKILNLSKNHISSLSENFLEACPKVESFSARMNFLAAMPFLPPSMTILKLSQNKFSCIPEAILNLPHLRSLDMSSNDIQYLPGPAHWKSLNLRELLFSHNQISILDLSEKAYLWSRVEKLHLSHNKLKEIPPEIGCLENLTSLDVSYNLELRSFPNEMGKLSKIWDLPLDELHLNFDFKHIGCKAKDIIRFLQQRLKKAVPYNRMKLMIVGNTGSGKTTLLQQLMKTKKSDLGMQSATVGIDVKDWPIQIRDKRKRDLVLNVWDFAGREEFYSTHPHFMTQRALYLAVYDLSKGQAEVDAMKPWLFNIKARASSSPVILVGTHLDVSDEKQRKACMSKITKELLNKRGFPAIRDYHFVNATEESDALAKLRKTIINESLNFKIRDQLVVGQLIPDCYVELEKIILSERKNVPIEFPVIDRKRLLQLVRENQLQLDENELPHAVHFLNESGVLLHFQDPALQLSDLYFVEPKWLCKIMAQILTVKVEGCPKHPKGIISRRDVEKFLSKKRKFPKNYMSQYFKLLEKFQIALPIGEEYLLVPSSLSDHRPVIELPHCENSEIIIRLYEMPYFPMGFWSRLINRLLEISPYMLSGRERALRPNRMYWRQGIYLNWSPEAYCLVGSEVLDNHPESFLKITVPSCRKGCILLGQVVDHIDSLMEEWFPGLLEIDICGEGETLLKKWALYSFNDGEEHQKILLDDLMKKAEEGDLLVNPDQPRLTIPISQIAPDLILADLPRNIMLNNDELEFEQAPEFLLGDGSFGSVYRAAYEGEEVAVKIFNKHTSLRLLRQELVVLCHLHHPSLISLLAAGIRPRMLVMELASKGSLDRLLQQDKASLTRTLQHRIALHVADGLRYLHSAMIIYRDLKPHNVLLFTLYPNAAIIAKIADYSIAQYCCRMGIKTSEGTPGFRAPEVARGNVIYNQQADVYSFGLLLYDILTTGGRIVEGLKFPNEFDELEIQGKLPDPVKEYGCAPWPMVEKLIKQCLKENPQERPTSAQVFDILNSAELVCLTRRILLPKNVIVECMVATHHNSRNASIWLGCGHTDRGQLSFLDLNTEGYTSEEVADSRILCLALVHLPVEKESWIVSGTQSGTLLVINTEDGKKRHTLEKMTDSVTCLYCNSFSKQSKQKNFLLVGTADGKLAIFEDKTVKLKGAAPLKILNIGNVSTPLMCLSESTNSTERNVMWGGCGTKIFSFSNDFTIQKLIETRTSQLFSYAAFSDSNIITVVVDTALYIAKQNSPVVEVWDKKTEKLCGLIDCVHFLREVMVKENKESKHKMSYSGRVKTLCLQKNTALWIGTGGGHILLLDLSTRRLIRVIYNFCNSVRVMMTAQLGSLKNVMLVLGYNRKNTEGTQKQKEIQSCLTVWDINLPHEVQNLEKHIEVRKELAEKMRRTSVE
T1 sequence (P49759 129-484 limits assumed): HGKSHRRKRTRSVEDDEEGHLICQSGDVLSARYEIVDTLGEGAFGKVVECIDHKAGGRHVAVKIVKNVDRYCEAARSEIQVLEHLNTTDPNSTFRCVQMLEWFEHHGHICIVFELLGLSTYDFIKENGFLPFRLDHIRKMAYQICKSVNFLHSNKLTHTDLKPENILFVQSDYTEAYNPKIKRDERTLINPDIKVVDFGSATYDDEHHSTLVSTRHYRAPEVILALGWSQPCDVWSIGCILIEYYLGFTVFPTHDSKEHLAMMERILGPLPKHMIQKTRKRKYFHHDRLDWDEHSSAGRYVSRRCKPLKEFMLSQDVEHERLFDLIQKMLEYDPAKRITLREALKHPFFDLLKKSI

For `CNc1nc(Nc2ccc(S(=O)(=O)N3CCC(N4CCOCC4)CC3)cc2OC)nc2[nH]ccc12` [Example 3, N^2-(2-methoxy-4-((4-morpholinopiperidin-1-yl)sulfonyl)phenyl)-N^4-methyl-7H-pyrrolo[2,3-d]pyrimidine-2,4-diamine 2,2,2-trifluoroacetate], the pIC50 is more than 7.00 at LRRK2 (G2019S), 6.00 to 6.52 on human GST-CLK1 and 6.00 to 6.52 at human GST-DYRK1A.
In the case of `CNc1nc(Nc2ccc(S(C)(=O)=O)cc2OC)nc2[nH]ccc12` [Example 4, N^2-(2-methoxy-4-(methylsulfonyl)phenyl)-N^4-methyl-7H-pyrrolo[2,3-d]pyrimidine-2,4-diamine 2,2,2-trifluoroacetate], the results for the pIC50 on LRRK2 (G2019S), against human GST-CLK1 and on human GST-DYRK1A were more than 7.00, 6.00 to 6.52 and 6.00 to 6.52, respectively.
Regarding `CCNc1nc(Nc2ccc(S(=O)(=O)N3CCOCC3)cc2OC)nc2[nH]ccc12` [Example 5, N^4-ethyl-N^2-(2-methoxy-4-(morpholinosulfonyl)phenyl)-7H-pyrrolo[2,3-d]pyrimidine-2,4-diamine 2,2,2-trifluoroacetate], the values for the pIC50 at LRRK2 (G2019S), on human GST-CLK1 and at human GST-DYRK1A were more than 7.00, 6.00 to 6.52 and 6.00 to 6.52, respectively.
On to `CCNc1nc(Nc2ccc(S(=O)(=O)N3CCC(N4CCOCC4)CC3)cc2OC)nc2[nH]ccc12` [Example 6, N^4-ethyl-N^2-(2-methoxy-4-((4-morpholinopiperidin-1-yl)sulfonyl)phenyl)-7H-pyrrolo[2,3-d]pyrimidine-2,4-diamine 2,2,2-trifluoroacetate], for which the results for the pIC50 on LRRK2 (G2019S), against human GST-CLK1 and on human GST-DYRK1A were more than 7.00, 6.00 to 6.52 and 6.00 to 6.52, respectively.
For `CCCNc1nc(Nc2ccc(S(=O)(=O)N3CCOCC3)cc2OC)nc2[nH]ccc12` [Example 7, N^2-(2-methoxy-4-(morpholinosulfonyl)phenyl)-N^4-propyl-7H-pyrrolo[2,3-d]pyrimidine-2,4-diamine 2,2,2-trifluoroacetate], the pIC50 is more than 7.00 against LRRK2 (G2019S), 6.00 to 6.52 against human GST-CLK1 and 6.00 to 6.52 on human GST-DYRK1A.
Regarding `CCCNc1nc(Nc2ccc(S(=O)(=O)N3CCC(N4CCOCC4)CC3)cc2OC)nc2[nH]ccc12` [Example 8, N^2-(2-methoxy-4-((4-morpholinopiperidin-1-yl)sulfonyl)phenyl)-N^4-propyl-7H-pyrrolo[2,3-d]pyrimidine-2,4-diamine 2,2,2-trifluoroacetate], the pIC50 against LRRK2 (G2019S) is more than 7.00; on human GST-CLK1 it was 6.00 to 6.52; at human GST-DYRK1A it was 6.00 to 6.52.
Turning to `CCCNc1nc(Nc2ccc(S(C)(=O)=O)cc2OC)nc2[nH]ccc12` [Example 9, N^2-(2-methoxy-4-(methylsulfonyl)phenyl)-N^4-propyl-7H-pyrrolo[2,3-d]pyrimidine-2,4-diamine 2,2,2-trifluoroacetate], the results for the pIC50 on LRRK2 (G2019S), at human GST-CLK1 and on human GST-DYRK1A were more than 7.00, 6.00 to 6.52 and 6.00 to 6.52, respectively.
With `COc1cc(S(=O)(=O)N2CCOCC2)ccc1Nc1nc(NCC(C)C)c2cc[nH]c2n1` [Example 10, N^4-isobutyl-N^2-(2-methoxy-4-(morpholinosulfonyl)phenyl)-7H-pyrrolo[2,3-d]pyrimidine-2,4-diamine], the results for the pIC50 at LRRK2 (G2019S), against human GST-CLK1 and at human GST-DYRK1A were more than 7.00, 6.00 to 6.52 and 6.00 to 6.52, respectively.
As to `COc1cc(S(=O)(=O)N2CCC(N3CCOCC3)CC2)ccc1Nc1nc(NCC(C)C)c2cc[nH]c2n1` [Example 11, N^4-isobutyl-N^2-(2-methoxy-4-((4-morpholinopiperidin-1-yl)sulfonyl)phenyl)-7H-pyrrolo[2,3-d]pyrimidine-2,4-diamine], the pIC50 at LRRK2 (G2019S) is more than 7.00; against human GST-CLK1, 6.00 to 6.52; at human GST-DYRK1A, 6.00 to 6.52.
Regarding `COc1cc(S(C)(=O)=O)ccc1Nc1nc(NCC(C)C)c2cc[nH]c2n1` [Example 12, N^4-isobutyl-N^2-(2-methoxy-4-(methylsulfonyl)phenyl)-7H-pyrrolo[2,3-d]pyrimidine-2,4-diamine 2,2,2-trifluoroacetate], the results for the pIC50 on LRRK2 (G2019S), against human GST-CLK1 and at human GST-DYRK1A were more than 7.00, 6.00 to 6.52 and 6.00 to 6.52, respectively.
For `COc1cc(S(=O)(=O)N2CCOCC2)ccc1Nc1nc(NC(C)C)c2cc[nH]c2n1` [Example 13, N^4-isopropyl-N^2-(2-methoxy-4-(morpholinosulfonyl)phenyl)-7H-pyrrolo[2,3-d]pyrimidine-2,4-diamine 2,2,2-trifluoroacetate], the pIC50 is more than 7.00 against LRRK2 (G2019S), 6.00 to 6.52 on human GST-CLK1 and 6.00 to 6.52 on human GST-DYRK1A.
For `COc1cc(S(C)(=O)=O)ccc1Nc1nc(NC(C)C)c2cc[nH]c2n1` [Example 14, N^4-isopropyl-N^2-(2-methoxy-4-(methylsulfonyl)phenyl)-7H-pyrrolo[2,3-d]pyrimidine-2,4-diamine 2,2,2-trifluoroacetate], the pIC50 against LRRK2 (G2019S) was more than 7.00; on human GST-CLK1, 6.00 to 6.52; at human GST-DYRK1A it was 6.00 to 6.52.
With `COCCNc1nc(Nc2ccc(S(C)(=O)=O)cc2OC)nc2[nH]ccc12` [Example 21, N^2-(2-methoxy-4-(methylsulfonyl)phenyl)-N^4-(2-methoxyethyl)-7H-pyrrolo[2,3-d]pyrimidine-2,4-diamine 2,2,2-trifluoroacetate], the negative logarithm of the IC50 (pIC50) on LRRK2 (G2019S) is more than 7.00; against human GST-CLK1 it was 6.00 to 6.52; at human GST-DYRK1A it was 6.00 to 6.52.
As for `COc1cc(S(=O)(=O)N2CCOCC2)ccc1Nc1nc(NC2CCC2)c2cc[nH]c2n1` [Example 22, N^4cyclobutyl-N^2-(2-methoxy-4-(morpholinosulfonyl)phenyl)-7H-pyrrolo[2,3-d]pyrimidine-2,4-diamine], the pIC50 at LRRK2 (G2019S) was more than 7.00; at human GST-CLK1, 6.00 to 6.52; on human GST-DYRK1A, 6.00 to 6.52.
Consider `COc1cc(S(=O)(=O)N2CCC(N3CCOCC3)CC2)ccc1Nc1nc(NC2CCC2)c2cc[nH]c2n1` [Example 23, N^4-cyclobutyl-N^2-(2-methoxy-4-((4-morpholinopiperidin-1-yl)sulfonyl)phenyl)-7H-pyrrolo[2,3-d]pyrimidine-2,4-diamine 2,2,2-trifluoroacetate], for which the results for the pIC50 on LRRK2 (G2019S), against human GST-CLK1 and on human GST-DYRK1A were more than 7.00, 6.00 to 6.52 and 6.00 to 6.52, respectively.
With `COc1cc(S(C)(=O)=O)ccc1Nc1nc(NC2CCC2)c2cc[nH]c2n1` [Example 24, N^4-cyclobutyl-N^2-(2-methoxy-4-(methylsulfonyl)phenyl)-7H-pyrrolo[2,3-d]pyrimidine-2,4-diamine], the pIC50 is more than 7.00 against LRRK2 (G2019S), 6.00 to 6.52 against human GST-CLK1 and 6.00 to 6.52 on human GST-DYRK1A.
For the molecule `COc1cc(S(=O)(=O)N2CCOCC2)ccc1Nc1nc(NC2CCCC2)c2cc[nH]c2n1` [Example 25, N^4-cyclopentyl-N^2-(2-methoxy-4-(morpholinosulfonyl)phenyl)-7H-pyrrolo[2,3-d]pyrimidine-2,4-diamine 2,2,2-trifluoroacetate], the pIC50 against LRRK2 (G2019S) was more than 7.00; against human GST-CLK1, 6.00 to 6.52; on human GST-DYRK1A, 6.00 to 6.52.
As to `COc1cc(S(=O)(=O)N2CCOCC2)ccc1Nc1nc(NC2CCCCC2)c2cc[nH]c2n1` [Example 26, N^4-cyclohexyl-N^2-(2-methoxy-4-(morpholinosulfonyl)phenyl)-7H-pyrrolo[2,3-d]pyrimidine-2,4-diamine 2,2,2-trifluoroacetate], the negative logarithm of the IC50 (pIC50) is more than 7.00 against LRRK2 (G2019S), 6.00 to 6.52 on human GST-CLK1 and 6.00 to 6.52 at human GST-DYRK1A.
Take `COc1cc(S(C)(=O)=O)ccc1Nc1nc(NC2CCCCC2)c2cc[nH]c2n1` [Example 27, N^4-cyclohexyl-N^2-(2-methoxy-4-(methylsulfonyl)phenyl)-7H-pyrrolo[2,3-d]pyrimidine-2,4-diamine 2,2,2-trifluoroacetate]: the pIC50 against LRRK2 (G2019S) was more than 7.00; on human GST-CLK1 it was 6.00 to 6.52; on human GST-DYRK1A it was 6.00 to 6.52.
Turning to `COc1cc(S(C)(=O)=O)ccc1Nc1nc(NC2CCOCC2)c2cc[nH]c2n1` [Example 30, N^2-(2-methoxy-4-(methylsulfonyl)phenyl)-N^4-(tetrahydro-2H-pyran-4-yl)-7H-pyrrolo[2,3-d]pyrimidine-2,4-diamine 2,2,2-trifluoroacetate], the pIC50 at LRRK2 (G2019S) is more than 7.00; at human GST-CLK1, 6.00 to 6.52; at human GST-DYRK1A, 6.00 to 6.52.
